This test addresses T1, BRD4 (D1); BRD4 (BD1) (Homo sapiens, UniProt O60885).
T1 construct: first bromodomain (D1/BD1), purchased from Biogenie, Canada
Kind of test: AlphaScreen peptide displacement assay. It counts as binding.

The IC50 is the concentration that gives 50% inhibition. A lower IC50 goes with greater potency.

In the case of `CCC1Oc2cc(NS(=O)(=O)c3ccccc3OC)ccc2NC1=O` (stereo not shown) [compound 5, N-(2-ethyl-3-oxo-3,4-dihydro-2H-benzo[b] [1, 4]oxazin-7-yl)-2-methoxybenzenesulfonamide], the IC50 was 999 nM.
